Results taken from ChEMBL document CHEMBL2074536, “Characterization of stably transfected kidney epithelial cell line expressing rat H+/peptide cotransporter PEPT1: localization of PEPT1 and transport of beta-lactam antibiotics” (J Pharmacol Exp Ther, 1997).
Where a SMILES comes first, the peptide text is derived from it.

What was measured:
Assay type in all cases: functional, cell-based
[1] = target: T1, Solute carrier family 15 member 1 (Rattus norvegicus) (UniProt P51574); assay: TP_TRANSPORTER: inhibition of Cephradine uptake (Cephradine: 1000 uM, Gly-Leu: 10000 uM) in PEPT1-expressing LLC-PK1 cells
T1 sequence (whole entry): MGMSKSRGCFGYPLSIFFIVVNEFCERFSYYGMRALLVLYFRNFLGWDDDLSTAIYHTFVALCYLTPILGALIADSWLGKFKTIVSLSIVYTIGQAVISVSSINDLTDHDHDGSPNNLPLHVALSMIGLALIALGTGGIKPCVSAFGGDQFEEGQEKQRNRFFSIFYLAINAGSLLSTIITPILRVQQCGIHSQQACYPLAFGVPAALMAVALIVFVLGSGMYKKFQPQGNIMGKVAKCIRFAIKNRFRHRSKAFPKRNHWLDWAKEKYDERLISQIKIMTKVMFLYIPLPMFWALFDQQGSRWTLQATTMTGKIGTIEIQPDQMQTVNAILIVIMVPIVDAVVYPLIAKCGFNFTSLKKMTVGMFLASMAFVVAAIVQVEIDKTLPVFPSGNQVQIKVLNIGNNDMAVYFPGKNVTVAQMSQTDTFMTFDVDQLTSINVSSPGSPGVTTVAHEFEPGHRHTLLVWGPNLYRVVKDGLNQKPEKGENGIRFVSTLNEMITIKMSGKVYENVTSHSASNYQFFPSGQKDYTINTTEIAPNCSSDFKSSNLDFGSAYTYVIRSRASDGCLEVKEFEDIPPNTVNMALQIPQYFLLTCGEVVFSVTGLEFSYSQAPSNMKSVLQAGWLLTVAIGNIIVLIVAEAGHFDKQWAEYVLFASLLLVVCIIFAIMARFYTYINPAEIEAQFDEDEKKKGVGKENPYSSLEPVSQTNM

[2] = target: T1, Solute carrier family 15 member 1 (Rattus norvegicus); assay: TP_TRANSPORTER: inhibition of Ceftibuten uptake (Ceftibuten: 1000 uM, Gly-Leu: 10000 uM) in PEPT1-expressing LLC-PK1 cells
[3] = target: T1, Solute carrier family 15 member 1 (Rattus norvegicus); assay: TP_TRANSPORTER: inhibition of Ceftibuten uptake (Ceftibuten: 1000 uM, Cefixime: 10000 uM) in PEPT1-expressing LLC-PK1 cells
[4] = target: T1, Solute carrier family 15 member 1 (Rattus norvegicus); assay: TP_TRANSPORTER: inhibition of Cephradine uptake (Cephradine: 1000 uM, Ceftibuten: 5000 uM) in PEPT1-expressing LLC-PK1 cells
[5] = target: T1, Solute carrier family 15 member 1 (Rattus norvegicus); assay: TP_TRANSPORTER: inhibition of Cephradine uptake (Cephradine: 1000 uM, Gly-Sar: 10000 uM) in PEPT1-expressing LLC-PK1 cells
[6] = target: T1, Solute carrier family 15 member 1 (Rattus norvegicus); assay: TP_TRANSPORTER: inhibition of Ceftibuten uptake (Ceftibuten: 1000 uM, Gly-Sar: 10000 uM) in PEPT1-expressing LLC-PK1 cells
[7] = target: T1, Solute carrier family 15 member 1 (Rattus norvegicus); assay: TP_TRANSPORTER: inhibition of Cephradine uptake (Cephradine: 1000 uM, Bestatin: 10000 uM) in PEPT1-expressing LLC-PK1 cells
[8] = target: T1, Solute carrier family 15 member 1 (Rattus norvegicus); assay: TP_TRANSPORTER: inhibition of Ceftibuten uptake (Ceftibuten: 1000 uM, Bestatin: 10000 uM) in PEPT1-expressing LLC-PK1 cells
[9] = target: T1, Solute carrier family 15 member 1 (Rattus norvegicus); assay: (§1) TP_TRANSPORTER: uptake in PEPT1-expressing LLC-PK1 cells
[10] = target: T1, Solute carrier family 15 member 1 (Rattus norvegicus); assay: TP_TRANSPORTER: inhibition of Cephradine uptake (Cephradine: 1000 uM, Gly-Gly-Phe: 10000 uM) in PEPT1-expressing LLC-PK1 cells
[11] = target: T1, Solute carrier family 15 member 1 (Rattus norvegicus); assay: TP_TRANSPORTER: inhibition of Ceftibuten uptake (Ceftibuten: 1000 uM, Gly-Gly-Phe: 10000 uM) in PEPT1-expressing LLC-PK1 cells
[12] = substrate: CC1=C(C(=O)O)N2C(=O)[C@@H](NC(=O)[C@H](N)C3=CCC=CC3)[C@H]2SC1; assay: as §1
[13] = substrate: Nc1nc(/C(=C/CC(=O)O)C(=O)N[C@@H]2C(=O)N3C(C(=O)O)=CCS[C@H]23)cs1; assay: as §1

With `CC(C)C[C@H](NC(=O)CN)C(=O)O` the Activity [1] was “inhibitor [+]” and the Activity [2] was “inhibitor [+]”.

`C=CC1=C(C(=O)O)N2C(=O)[C@@H](NC(=O)/C(=N\OCC(=O)O)c3csc(N)n3)[C@H]2SC1` was tested, and the Activity [3] was “inhibitor [+]”.

`Nc1nc(/C(=C/CC(=O)O)C(=O)N[C@@H]2C(=O)N3C(C(=O)O)=CCS[C@H]23)cs1` was tested, and the Activity [4] was “inhibitor [+]”.

`CN(CC(=O)O)C(=O)CN` (HELM PEPTIDE1{G.[Sar]}$$$$V2.0) was tested, and the Activity [5] was “inhibitor [+]” and the Activity [6] was “inhibitor [+]”.

For `CC(C)C[C@H](NC(=O)[C@@H](O)[C@H](N)Cc1ccccc1)C(=O)O`, the Activity [7] was “inhibitor [+]”, the Activity [8] was “inhibitor [+]” and the Activity [9] was “substrate [+]”.

`NCC(=O)NCC(=O)N[C@@H](Cc1ccccc1)C(=O)O` (H-Gly-Gly-Phe-OH) was tested, and the Activity [10] was “inhibitor [+]” and the Activity [11] was “inhibitor [+]”.

B1: Solute carrier family 15 member 1 (Rattus norvegicus), P51574 (protein)
chain: T1 sequence (whole entry)
B1 was tested, and the Km [12] was 8.2 mM and the Km [13] was 1.5 mM.
